Measurements taken from patent publication EP2351737A1, “3-Amino-1-arylpropyl indoles and aza-substituted indoles” (F. Hoffmann-La Roche AG, priority 2005, dated 2007).
Where a name gives a salt, the structure may show the parent alone.

How the values were obtained:
[1] = target: Human Norepinephrine Transporter (hNET) (Homo sapiens, UniProt P23975); assay: Human Norepinephrine Transporter (hNET) Scintillation Proximity Assay (SPA), competition with [3H]-Nisoxetine; details: membranes of HEK-293 cells expressing recombinant hNET, Ki by Cheng-Prusoff; for Ki: pKi NET
Human Norepinephrine Transporter (hNET), sequence (P23975 whole entry): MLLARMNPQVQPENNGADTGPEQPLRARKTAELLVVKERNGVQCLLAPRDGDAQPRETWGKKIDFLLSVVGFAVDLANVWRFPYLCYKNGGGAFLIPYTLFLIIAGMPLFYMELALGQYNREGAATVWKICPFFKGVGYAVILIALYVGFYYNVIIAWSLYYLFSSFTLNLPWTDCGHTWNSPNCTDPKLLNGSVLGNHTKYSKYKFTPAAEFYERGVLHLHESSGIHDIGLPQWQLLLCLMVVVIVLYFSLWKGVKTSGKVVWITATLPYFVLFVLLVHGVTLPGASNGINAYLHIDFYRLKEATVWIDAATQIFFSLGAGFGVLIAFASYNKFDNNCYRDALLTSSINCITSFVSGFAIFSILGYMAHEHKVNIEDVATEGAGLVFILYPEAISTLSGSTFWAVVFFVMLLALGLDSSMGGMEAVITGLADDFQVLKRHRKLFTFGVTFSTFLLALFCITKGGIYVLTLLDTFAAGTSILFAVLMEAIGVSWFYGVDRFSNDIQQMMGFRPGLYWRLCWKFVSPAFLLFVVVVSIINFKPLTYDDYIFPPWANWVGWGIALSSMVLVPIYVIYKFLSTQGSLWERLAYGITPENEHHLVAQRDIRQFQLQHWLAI

[2] = target: T1, Human Serotonin Transporter (hSERT) (Homo sapiens, UniProt P31645); assay: Human Serotonin Transporter (hSERT) Scintillation Proximity Assay (SPA), competition with [3H]-Citalopram; format: binding; details: membranes of HEK-293 cells expressing recombinant hSERT, Ki by Cheng-Prusoff; for Ki: read-out: pKi SERT (converted)
T1 construct: expressed in transfected cells; membranes prepared from them
T1 sequence (P31645 whole entry): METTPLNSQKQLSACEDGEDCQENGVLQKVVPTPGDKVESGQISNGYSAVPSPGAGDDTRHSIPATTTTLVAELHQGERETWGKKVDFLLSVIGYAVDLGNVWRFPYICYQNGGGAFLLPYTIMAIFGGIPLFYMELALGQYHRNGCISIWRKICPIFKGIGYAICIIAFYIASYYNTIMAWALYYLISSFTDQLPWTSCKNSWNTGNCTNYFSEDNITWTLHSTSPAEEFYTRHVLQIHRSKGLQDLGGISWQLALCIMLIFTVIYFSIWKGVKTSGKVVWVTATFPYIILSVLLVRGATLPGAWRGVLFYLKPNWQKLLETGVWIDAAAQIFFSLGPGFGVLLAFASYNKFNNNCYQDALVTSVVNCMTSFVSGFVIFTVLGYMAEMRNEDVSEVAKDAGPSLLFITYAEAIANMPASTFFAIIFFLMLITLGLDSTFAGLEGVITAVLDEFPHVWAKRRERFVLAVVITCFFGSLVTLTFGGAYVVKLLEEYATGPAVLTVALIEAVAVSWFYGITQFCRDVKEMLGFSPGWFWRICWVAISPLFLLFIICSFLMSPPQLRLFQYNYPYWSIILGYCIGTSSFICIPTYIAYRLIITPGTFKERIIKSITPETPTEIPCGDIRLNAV
Text: Screening for Human Serotonin Transporter (hSERT) Antagonists Using a Scintillation Proximity Assay (SPA)
Scintillation Proximity Assay (SPA) works by bringing radioligand within close proximity to the bead's scintillant to stimulate light emission. […] Unbound radioligand produced no signal as a result of distant proximity to scintillant (lack of energy transfer).

CNCCC(c1ccccc1)c1ccc2occc2c1 (stereo not drawn) [Compound 142, (3-Benzofuran-5-yl-3-phenyl-propyl)-methyl-amine]
Ki [1]: 10.5 nM | Ki [2]: 10.7 nM

CNCCC(c1ccccc1)c1ccc2[nH]cc(C)c2c1 (stereo not drawn) [Compound 15, Methyl-[3-(3-methyl-1H-indol-5-yl)-3-phenyl-propyl]-amine]
Ki [1]: 40.7 nM | Ki [2]: 5.25 nM

CNCC[C@H](c1ccccc1)c1cc(F)c2[nH]cc(C#N)c2c1 [Compound 99, 7-Fluoro-5-(3-methylamino-1-(R)-phenyl-propyl)-1H-indole-3-carbonitrile]
Ki [1]: 145 nM | Ki [2]: 0.661 nM

CNCC[C@H](c1ccccc1)c1cc(Cl)c2[nH]ncc2c1 [Compound 84, [3-(7-Chloro-1H-indazol-5-yl)-3-(R)-phenyl-propyl]-methyl-amine]
Ki [1]: 7.76 nM | Ki [2]: 5.89 nM

[3-(7-Fluoro-1H-indol-5-yl)-3-naphthalen-2-yl-propyl]-methyl-amine [Compound 106]
pKi NET [1]: 7.68 | pKi SERT [2]: 8.28

CNCCC(c1ccccc1)c1ccc2[nH]ncc2c1 (stereo not drawn) [Compound 51, [3-(1H-Indazol-5-yl)-3-phenyl-propyl]-methyl-amine hydrochloride]
Ki [1]: 34.7 nM | Ki [2]: 15.8 nM

CNCCC(c1ccc2[nH]ccc2c1)c1ccc2sccc2c1 (stereo not drawn) [Compound 116, [3-Benzo[b]thiophen-5-yl-3-(1H-indol-5-yl)-propyl]-methyl-amine]
Ki [1]: 5.01 nM | Ki [2]: 1.74 nM

[3-(3,4-Dichloro-phenyl)-3-(7-fluoro-1H-indol-5-yl)-propyl]-methyl-amine [Compound 109]
pKi NET [1]: 7.56 | pKi SERT [2]: 7.9

CNCCC(c1ccccc1)c1ccc2occc2c1 (stereo not drawn) [Compound 141, (3-Benzofuran-5-yl-3-phenyl-propyl)-methyl-amine]
Ki [1]: 10.7 nM | Ki [2]: 22.4 nM

CNCCC(c1ccccc1)c1ccc2c(C#N)c[nH]c2c1 (stereo not drawn) [Compound 28, 6-(3-Methylamino-1-phenyl-propyl)-1H-indole-3-carbonitrile]
pKi NET [1]: 6.89 | pKi SERT [2]: 9.72

CNCC[C@H](c1ccccc1)c1ccc2[nH]nc(Cl)c2c1 [Compound 61, [(R)-3-(3-Chloro-1H-indazol-5-yl)-3-phenyl-propyl]-methyl-amine trifluoracetate]
Ki [1]: 123 nM | Ki [2]: 3.39 nM

[3-(1H-Indol-5-yl)-3-quinolin-6-yl-propyl]-methyl-amine [Compound 112]
pKi NET [1]: 7.5 | pKi SERT [2]: 8.67

CNCCC(c1ccccc1)c1ccc2[nH]nc(C)c2c1 (stereo not drawn) [Compound 58, Methyl-[3-(3-methyl-1H-indazol-5-yl)-3-phenyl-propyl]-amine]
Ki [1]: 191 nM | Ki [2]: 42.7 nM

4-Methoxy-5-(3-methylamino-1-phenyl-propyl)-1H-indole-3-carbonitrile [Compound 89]
pKi NET [1]: 6.05 | pKi SERT [2]: 9.07

[3-(7-Fluoro-1H-indol-5-yl)-3-(2-fluoro-phenyl)-propyl]-methyl-amine [Compound 95]
pKi NET [1]: 8.32 | pKi SERT [2]: 7.22

CNCCC(c1ccc2[nH]ccc2c1)c1ccc2cc[nH]c2c1 (stereo not drawn) [Compound 117, [3-(1H-Indol-6-yl)-3-(1H-indol-5-yl)-propyl]-methyl-amine]
Ki [1]: 5.89 nM | Ki [2]: 8.91 nM

[3-(7-Fluoro-1H-indol-5-yl)-3-(4-fluoro-phenyl)-propyl]-methyl-amine [Compound 94]
pKi NET [1]: 8.0 | pKi SERT [2]: 7.75

[3-(7-Fluoro-1H-indol-5-yl)-3-(3-methoxy-phenyl)-propyl]-methyl-amine [Compound 100]
pKi NET [1]: 7.95 | pKi SERT [2]: 7.79

[3-(5-Methoxy-1H-indol-6-yl)-3-phenyl-propyl]-methyl-amine [Compound 86]
pKi NET [1]: 7.63 | pKi SERT [2]: 8.01

CNCCC(c1ccccc1)c1cc(OC)c2[nH]ncc2c1 (stereo not drawn) [Compound 75, [3-(7-Methoxy-1H-indazol-5-yl)-3-phenyl-propyl]-methyl-amine]
Ki [1]: 6.61 nM | Ki [2]: 5.62 nM

CNCCC(c1ccccc1)c1cc(F)c2[nH]ccc2c1 (stereo not drawn) [Compound 13]
pKi NET [1]: 8.2 | pKi SERT [2]: 7.4

CNCCC(c1ccccc1)c1ccc2[nH]c(C)cc2c1 (stereo not drawn) [Compound 7, Methyl-[3-(2-methyl-1H-indol-5-yl)-3-phenyl-propyl]-amine]
Ki [1]: 91.2 nM | Ki [2]: 11 nM

NCCC(c1ccc2[nH]ccc2c1)c1ccc2[nH]ccc2c1 [Compound 119, 3,3-Bis-(1H-indol-5-yl)-propylamine]
Ki [1]: 11.5 nM | Ki [2]: 72.4 nM

CNCCC(c1cccc(F)c1)c1cc(Cl)c2[nH]ccc2c1 (stereo not drawn) [Compound 108]
Ki [1]: 2.88 nM | Ki [2]: 12.9 nM
